Reference: PMC7170385, “The selenium-containing drug ebselen potently disrupts LEDGF/p75-HIV-1 integrase interaction by targeting LEDGF/p75” (Journal of Enzyme Inhibition and Medicinal Chemistry, 2020)
Read-outs that look alike come from different tables or passages of the source.

Legend:
LEDGF/p75-IN interaction = system: LEDGF/p75-IN interaction; design: method as in PMID 21222490; details: cited from earlier work
LEDGF/p75 = LEDGF/p75 (Homo sapiens, UniProt O75475); experiment: Biolayer interferometry (BLI) binding assay
Description: A protein binding assay was performed by biolayer interferometry (BLI) as described previously. First, purified recombinant LEDGF/p75 protein was biotinylated using the Thermo EZLink long-chain biotinylation reagent. Then, biolayer interferometry (BLI) assay was performed using an OctetRED96 instrument from PALL/ForteBio. All assays were run at 30 °C with continuous 1000 rpm shaking. PBS with 0.01% Tween-20 was used as the assay buffer. Briefly, biotinylated LEDGF/p75 protein was tethered on Super Streptavidin (SSA) biosensors (ForteBio) by dipping sensors into 200 µl per well 50 µg/ml protein solutions. The measurement processes were all under computer control. Programme procedures were established as follows: For the initial step, biosensors were washed in assay buffer for 300 s to form a baseline; the biosensors labelled with biotin-LEDGF/p75 were exposed to 100 µM compounds for association, and were monitored for 600 s; and then, the biosensors were moved back into assay buffer to disassociate for another 1800s. Data were fit globally and generated automatically by Octet User software (version 9.0.0.10; Fortebio).

HIV-1 = system: HIV-1; design: method as in PMID 26810656; details: previous study; read-out: 50% effective concentration (EC50), replication of HIV-1; cited from earlier work
[1] = design: method as in PMID 26810656; details: previous study; read-out: half-maximal cytotoxic concentration (CC50); cited from earlier work
[2] = biological target: Cryptosporidium parvum glucose-6-phosphate isomerase; design: method as in Eltahan et al.[46]; details: ref Eltahan et al.[46]; cited from earlier work
[3] = system: Tumor marker endothelial 8 and protective antigen interaction; details: cited from earlier work
[4] = biological target: Trypanosoma brucei hexokinase 1; design: method as in Gordhan et al.[47]; details: ref Gordhan et al.[47]; cited from earlier work
[5] = system: Escherichia coli thioredoxin reductase; design: method as in Lu et al.[48]; details: cell marked (Ki); ref Lu et al.[48]; cited from earlier work
[6] = system: C-terminal domain of HIV-1 capsid; design: method as in Thenin-Houssier et al.[39]; details: ref Thenin-Houssier et al.[39]; cited from earlier work
[7] = biological target: Bacillus anthracis thioredoxin reductase; details: ref Gustafsson et al.[49]; cited from earlier work
[8] = system: Clostridium difficile cysteine protease domain; design: method as in Bender et al.[50]; details: ref Bender et al.[50]; cited from earlier work
[9] = biological target: New Delhi metallo-β-lactamase; design: method as in Chiou et al.[51]; details: ref Chiou et al.[51]; cited from earlier work
[10] = system: Mycobacterium tuberculosis antigen 85; design: method as in Favrot et al.[52]; details: ref Favrot et al.[52]; cited from earlier work
[11] = system: Hepatitis C Virus NS3 Helicase-Nucleic Acid interaction; design: method as in Mukherjee et al.[53]; details: ref Mukherjee et al.[53], cited from earlier work
[12] = biological target: Cryptosporidium parvum Inosine 5′-monophosphate dehydrogenase; design: method as in Sarwono et al.[54]; details: ref Sarwono et al.[54]; cited from earlier work
[13] = system: Pseudomonas aeruginosa Diguanylate Cyclases; design: method as in Lieberman et al.[55]; details: ref Lieberman et al.[55]; cited from earlier work
[14] = biological target: T1, LEDGF/p75 IBD-HIV-1 IN interaction (Homo sapiens, UniProt O75475); experiment: HTRF-based LEDGF/p75 IBD-IN interaction assay
T1 sequence (O75475 347-429 limits assumed): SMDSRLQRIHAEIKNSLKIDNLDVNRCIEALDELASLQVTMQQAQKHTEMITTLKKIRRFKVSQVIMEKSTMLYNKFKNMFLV

Sequence of LEDGF/p75 (O75475 whole entry): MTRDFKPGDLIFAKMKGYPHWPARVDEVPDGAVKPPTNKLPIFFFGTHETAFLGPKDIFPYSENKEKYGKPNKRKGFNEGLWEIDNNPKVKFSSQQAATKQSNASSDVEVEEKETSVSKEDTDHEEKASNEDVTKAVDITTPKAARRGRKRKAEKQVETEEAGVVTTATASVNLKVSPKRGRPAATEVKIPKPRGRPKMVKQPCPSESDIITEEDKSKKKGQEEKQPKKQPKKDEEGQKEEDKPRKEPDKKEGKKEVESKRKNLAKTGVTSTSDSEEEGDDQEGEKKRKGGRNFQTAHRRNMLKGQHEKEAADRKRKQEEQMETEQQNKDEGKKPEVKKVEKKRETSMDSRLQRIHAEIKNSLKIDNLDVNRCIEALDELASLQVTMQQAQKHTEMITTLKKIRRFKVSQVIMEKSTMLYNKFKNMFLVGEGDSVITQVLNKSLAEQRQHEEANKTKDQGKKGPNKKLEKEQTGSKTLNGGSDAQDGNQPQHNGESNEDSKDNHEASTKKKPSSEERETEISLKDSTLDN

O[C@@H](CS)[C@@H](O)CS (racemic) [DTT, dithiothreitol]
Inhibitory effect of DTT on LEDGF/p75-IN interaction (LEDGF/p75-IN interaction; at 50 µM): negligible
IC50 (LEDGF/p75-IN interaction): 4500 µM

O=c1c2ccccc2[se]n1-c1ccccc1 [Compound 1, 2-phenyl-1,2-benzisoselenazol-3-one]
Kd (LEDGF/p75; BLI Octet Red, biotinylated LEDGF/p75, 30 °C): 0.0133 µM
Dissociation from LEDGF/p75 (LEDGF/p75; BLI, dissociation in assay buffer 1800 s): do not show obvious dissociation
EC50 (HIV-1): 1.99 µM
CC50 [1]: 25.4 µM
IC50 [2]: 8.33 µM
IC50 [3]: 1.7 µM
IC50 [4]: 0.05 µM
Ki [5]: 0.52 µM
IC50 [6]: 0.047 µM
IC50 [7]: 1 µM
IC50 [8]: 0.0069 µM
IC50 [9]: 0.38 µM
IC50 [10]: 0.063 µM
IC50 ([11]; first value of cell 1.1/0.9, difference not explained, read-out: IC50 (first of two values printed)): 1.1 µM
IC50 ([11]; second value of cell 1.1/0.9, difference not explained, read-out: IC50 (second of two values printed)): 0.9 µM
IC50 [12]: 0.71 µM
IC50 [13]: 5 µM
IC50 [14]: 7700 nM
HTRF signal when IBD was pre-incubated with compound ([14]; IBD pre-incubated with ebselen): dramatical decrease
HTRF signal when IN was pre-incubated with compound ([14]; IN pre-incubated with ebselen): no obvious signal change
Inhibitory effect on LEDGF/p75 IBD-IN interaction in the presence of DTT ([14]; in the presence of 50 µM dithiothreitol (DTT)): completely abolished
Time-dependent inhibition (change of affinity over time) ([14]; over 1 h): increase in its affinity

COc1cc(/C=C/C(=O)CC(=O)/C=C/c2ccc(O)c(OC)c2)ccc1O [Compound 2, Curcumin]
IC50 [14]: 14500 nM

O=S(=O)(c1c(O)c(Cl)cc(Cl)c1Cl)c1c(O)c(Cl)cc(Cl)c1Cl [Compound 3, p38 MAP kinase inhibitor IV]
IC50 [14]: 117000 nM

CCN(CC)C(=S)SSC(=S)N(CC)CC [Disulfiram]
IC50 [14]: 23200 nM

NC(=O)CI [Iodoacetamide]
IC50 ([14]; HTRF, 12-point dose-response 0.024 to 50 µM, His6-HIV-1 IN 50 nM, GST-IBD): > 1e+07 nM

CCN1C(=O)C=CC1=O [N-Ethylmaleimide]
IC50 [14]: 566000 nM
